Data set [1] concerns S. aureus. In words: MIC against S. aureus. Type of data set: cell-based. As to conditions: data not shown.
Data set [2] relates to P. aeruginosa PAO1. In words: Time-kill curves (T3log). The format is cell-based, Pseudomonas aeruginosa. As to conditions: MH, 37 °C with shaking, sampling 15 min to 6 h. The protocol:
Time-kill studies were determined with glass tubes containing 10 ml of MH and different concentrations of the peptides (1, 2 and 4 times their MIC). Overnight cultures of P. aeruginosa PAO1 in TSB were adjusted at 5 × 10^7 CFU/ml turbidimetrically. This […] suspension was diluted in the MH tubes (1:50) for the time-kill assay. Tubes were incubated at 37 °C with shaking and samples were taken at the following time points after the beginning of incubation: 15 min, 30 min, 45 min, 1 h, 2 h, 4 h and 6 h. Each sample was serially diluted and plated. The lower limit of detection was 30 CFU/ml (1.5 × log10 CFU/ml).
To quantify the killing efficiency of the treatments, the parameter T3log (defined as the time required for the treatment to decrease 3 logs the initial inoculum) was used.

Data set [3] relates to Pseudomonas aeruginosa PAO1 planktonic cells. Type of data set: cell-based. The following applies: PAO1, 24 h. The protocol:
Minimal inhibitory concentrations (MIC) of the peptides were determined in Mueller Hinton (MH) medium (Difco Laboratories, Detroit, MI, USA) by the broth microdilution assay following recommendations of the Clinical and Laboratory Standards Institute (CLSI, formerly NCCLS) with some modifications. Minimum bactericidal concentration (MBC) was defined as the concentration that caused a 3-log viability decrease in the initial inoculum and was calculated by colony counts on TSA plates incubated for 24 h at 37 °C.

The test system of data set [4] is P. aeruginosa PAO1 biofilms. The format is cell-based, Pseudomonas aeruginosa. As to conditions: 10XMIC, 24 h at 37 °C, biofilms grown in microplates (static conditions). The protocol: In the microplate based assay, biofilms were grown with no fluid shear and the anti-biofilm activity of peptides was assessed as previously described with some modifications. Briefly, overnight cultures of P. aeruginosa PAO1 in TSB were adjusted at 5 × 10^7 CFU/ml turbidimetrically. This suspension was diluted in TSB (1:100) and 100 μl aliquots were added to the wells of a 96-well plate. After 24 h incubation at 37 °C, planktonic bacteria were removed by gently inverting the plate and then the biofilm-containing wells were washed with saline (0.85 % NaCl). The antimicrobial compound was serially diluted in Mueller Hinton (MH) at final concentrations higher than its planktonic MIC and 200 μl of each dilution was added to the wells. After 24 h incubation at 37 °C, biofilms were stained with either MTT (Sigma, St. Louis, MO, USA) or crystal violet (CV). As control, duplicate biofilms were incubated with MH containing no antimicrobial.
To quantify the disinfection (or bactericidal) activity of the antimicrobials on the biofilms, the MTT assay was used and performed as follows. After the treatment, the biofilms were rinsed with saline and 200 μl of a 0.5 mg/ml dilution of MTT in MH, was added to the wells. Incubation of biofilm with MTT was carried out during 4 h at 37 °C with no shaking. As a measure of cell viability, the conversion of MTT to a […] was determined by solubilizing the salt in 100 μl/well of DMSO and reading the absorbance of the resulting solution at 540 nm.
Both the disinfection and removal activity of antimicrobials were expressed as “activity percentage”, a parameter that was calculated using the following formula: ActivityPercentage=C−B−T−B/C−B×100
Where C is the absorbance value of the control well with non-treated biofilm, T corresponds to the absorbance value of the well with treated biofilm and B is the blank well (i.e. with no biofilm).

Data set [5] relates to HeLa cells. As to the kind of experiment: Cytotoxicity assay (MTT). Type of data set: cell-based. The protocol:
Cytotoxicity was assayed on HeLa cells using the MTT [3-(4,5-dimethylthiazoyl-2-yl) 2,5 diphenyltetrazolium bromide protocol. Cells were grown in Dulbeccos’s modified Eagle’s medium (DMEM) and adjusted to a concentration of 10^5 cells/ml (MTT) in 96 wells polystyrene plates. Plates were incubated for 24 h at 37 °C in 5 % CO2, then supplemented with increasing amounts of peptides diluted in 2 mM Hepes pH 7.2, and incubation carried on for 24 h under the same conditions. After this time, filter-sterilized MTT was added in different plates. After 3 h, the content of the wells was gently solved and mixed with 100 μl of DMSO (MTT). Absorbance was measured at 540 nm. Compound cytotoxicity was expressed as LC50, the concentration of the compound that is lethal to 50 % of the cells.

Data set [6] has as its system P. aeruginosa PAO1 pMF230 biofilm. As to the kind of experiment: CDC-reactor biofilm assay, fluorescence microscopy (GFP/PI). The format is cell-based, Pseudomonas aeruginosa. As to conditions: 10XMIC, 60 min, CDC-reactor coupons; compared with 24 h microplate assay. The protocol: (§1) Briefly, 1 ml of an overnight culture of P. aeruginosa PAO1 pMF230 was inoculated into 350 ml of TSB and this suspension was used to fill the reactor chamber. After 24 h of growth in batch culture at 37 °C with magnetic agitation, a continuous flow of TSB (3 g/l) was applied to the reactor chamber at a rate of 11 ml/min. Under these conditions, a dense biofilm develops on the surface of small disks called coupons that are constantly bathed in fresh culture medium. After 24 h incubation, the coupons were removed from the chamber and planktonic cells were eliminated by rinsing the coupons with saline. […]
(§2) For the microscopic assessment of anti-biofilm activity, biofilms grown and treated on coupons as detailed above were soaked in a 120 μM solution of propidium iodide (PI, live/dead® Baclight™ bacterial viability kit, Invitrogen, Carlsbad, CA, USA) in filter-sterilized distilled water and incubated for 15 min at room temperature. Then, coupons were rinsed in filter-sterilized distilled water and their surface was examined by fluorescence microscopy using FITC filter (green fluorescence: λexcitation, 499 nm; λemission, 519 nm) and TRITC filter (red fluorescence: λexcitation, 552 nm; λemission, 578 nm). […] Microscope images were analyzed with the software Imaris® × 64 5.7.2. […]

Data set [7] has the same test system. As to the kind of experiment: CDC-reactor biofilm assay, confocal laser scanning microscopy (GFP/PI). Type of data set: cell-based, Pseudomonas aeruginosa. As to conditions: 10XMIC, 60 min, CLSM, determined by volume. The protocol:
as §1, §2

Values after ≈ are worked out from the molar mass of the structure shown. Where a SMILES comes first, the peptide text is derived from it. The star is where a group is joined. Butanoyl(2,2-Me2) = CCC(C)(C)C(=O)*; Octanoyl(6-Me) = CCC(C)CCCCC(=O)*

`CCC(C)CCCCC(=O)N[C@@H](Cc1ccccc1)C(=O)N[C@@H](Cc1c[nH]c2ccccc12)C(=O)N[C@@H](CCCNC(=N)N)C(=O)N[C@@H](CCCNC(=N)N)C(=O)N[C@@H](Cc1ccccc1)C(=O)N[C@@H](Cc1c[nH]c2ccccc12)C(=O)N[C@@H](CCCNC(=N)N)C(=O)N[C@@H](CCCNC(=N)N)C(N)=O` (stereo partly shown) [6-MO-LF11-227] ({Octanoyl(6-Me)}-FWRRFWRR-NH2): in data set [1], the “MIC against S. aureus compared with non-acylated counterpart” value is on record as “eight times lower”. Also, in data set [2], the “T3log at 1X MIC (time needed to decrease 3 logs the initial inoculum)” value is recorded as 10 minutes, the “T3log at 2X MIC (time needed to decrease 3 logs the initial inoculum)” value came out at 10 minutes and the “T3log at 4X MIC (time needed to decrease 3 logs the initial inoculum)” value is given as 10 minutes. Besides, in data set [3], the “MBC (minimal bactericidal concentration)” value came to 128 µg/mL (≈ 88.3 µM) and the “MIC (minimal inhibitory concentration)” value came to 128 µg/mL (≈ 88.3 µM).
Turning to `CC[C@H](C)[C@H](NC(=O)[C@H](CCCNC(=N)N)NC(=O)[C@@H](NC(=O)[C@H](CCCNC(=N)N)NC(=O)[C@H](Cc1c[nH]c2ccccc12)NC(=O)[C@H](Cc1ccccc1)NC(=O)[C@@H]1CCCN1C(=O)C(C)(C)CC)[C@@H](C)CC)C(=O)N[C@@H](CCCNC(=N)N)C(=O)N[C@@H](CCCNC(=N)N)C(N)=O` [DI-MB-LF11-322, 2,2-dimethylbutanoyl-PFWRIRIRR] ({Butanoyl(2,2-Me2)}-PFWRIRIRR-NH2), the “Disinfection activity (biofilm-forming bacteria killed, MTT test)” value in data set [4] is reported as “medium-range disinfection activity”. For the same compound, in data set [2], the “T3log at 1X MIC (time needed to decrease 3 logs the initial inoculum)” value was determined as 12 minutes, the “T3log at 2X MIC (time needed to decrease 3 logs the initial inoculum)” value is 11 minutes and the “T3log at 4X MIC (time needed to decrease 3 logs the initial inoculum)” value came to 10 minutes. In data set [5], the “LC50 expressed as multiple of the MIC” value is given as about 2 XMIC. For the same compound, the “LC50 (concentration lethal to 50 % of the cells)” value in data set [5] (HeLa cells, 24 h, MTT) came out at 80 µg/mL. Moreover, the “Anti-biofilm activity under static and dynamic conditions (fluorescence microscopy)” value in data set [6] was “potent anti-biofilm activity”. In addition, the “Percentage of dead (red) cells in the biofilm volume” value in data set [7] was determined as 99.81%. For the same compound, in data set [3], the “MBC (minimal bactericidal concentration)” value was determined as 32 µg/mL (≈ 22.9 µM) and the “MIC (minimal inhibitory concentration)” value was 32 µg/mL (≈ 22.9 µM).

Source of the values: PMC4491869, “Antimicrobial activity of synthetic cationic peptides and lipopeptides derived from human lactoferricin against Pseudomonas aeruginosa planktonic cultures and biofilms” (BMC Microbiology, 2015).
